Laboratory results from US20070005124A1, “Endoluminal prosthesis comprising a therapeutic agent” (Blue Medical Devices B.V., priority 2003, published 2007).
“Also recorded” adds a separate entry of the source.

How the values were obtained:
[1] = tested on: coronary arteries of pigs; test: Probucol and Melatonin biological-oil coated stents implanted in porcine coronary arteries, histopathology and morphometry at 4 weeks; assay type: in vivo, Domestic crossbred pigs; settings: oil-coated loaded stents; for AS: Area stenosis (= 100 * (1 − LA/IEL)) / Inflammation (peri-strut inflammation score 1-3, mean) / Injury (arterial injury score, Schwartz grade 0-3, mean) / NIH: Neointimal hyperplasia (= IEL − LA) / LA: Lumen area: 4 weeks follow-up; for LA: Lumen area: Probucol 447+/−56 μg, Melatonin 367+/−47 μg per stent; for effect on arterial injury and inflammatory response (in words): compared to bare and/or oil-only stents
Procedure: Domestic crossbred pigs of both sexes weighing 20-25 kg were used. They were fed with a standard natural grain diet without lipid or cholesterol supplementation throughout the study. All animals were treated and cared for in accordance with the Belgium National Institute of Health Guidelines for care and use of laboratory animals.
In this study, bare Jostent Flexmaster stents (n=8), Bare stents dipped in a Biological oil coating (Oil Only; n=7), Bare stents dipped in a Probucol/Biological oil coating solution resulting in a total Probucol load of 447+/−56 μg/per stent (Pro, n=7) and Bare stents dipped in a Melatinin/Biological oil coating solution resulting in a total Melatonin load of 367+/−47 μg/stent (Mela, n=8). Stents were implanted in the coronary arteries of 15 pigs. All pigs were followed for 4 weeks to evaluate the peri-strut inflammatory response and neointimal formation.
Surgical procedure and stent implantation in the coronary arteries were performed according to the method described by De Scheerder et al. in “Local angiopeptin delivery using coated stents reduces neointimal proliferation in overstretched porcine coronary arteries.” J. Inves. Cardiol. 8:215-222; 1996, and in “Experimental study of thrombogenicity and foreign body reaction induced by heparin-coated coronary stents.” Circulation 95:1549-1553; 1997. The guiding catheter was used as a reference to obtain an oversizing from 10 to 20%.
Coronary segments were carefully dissected together with a 1 cm minimum vessel segment both proximal and distal to the stent. The segments were fixed in a 10% formalin solution. The middle part of each stent was harvested for histopathologic analysis. Tissue specimens were embedded in a cold-polymerizing resin (Technovit 7100, Heraus Kulzer GmbH, and Wehrheim, Germany). Sections, 5 microns thick, were cut with a rotary heavy duty microtome HM 360 (Microm, Walldorf, Germany) equipped with a hard metal knife and stained with hematoxylin-eosin, elastic stain and phosphotungstic acid hematoxylin stain. Light microscopic examination was performed by an experienced pathologist who was blinded to the type of stent used. Injury of the arterial wall due to stent deployment (and eventually inflammation induced by the polymer) was evaluated for each stent filament and graded as described by Schwartz et al. • Grade 0=internal elastic membrane intact, media compressed but not lacerated; • Grade 1=internal elastic membrane lacerated; • Grade 2=media visibly lacerated; external elastic membrane compressed but intact; • Grade 3=large laceration of the media extending through the external elastic membrane or stent filament residing in the adventitia.
Inflammatory reaction at each stent filament was carefully examined, searching for inflammatory cells, and scored as followed: • 1=sparsely located histolymphocytes surrounding the stent filament; • 2=more densely located histolymphocytes covering the stent filament, but no lymphogranuloma and/or giant cells formation found; • 3=diffusely located histolymphocytes, lymphogranuloma and/or giant cells, also invading the media. • Mean score=sum of score for each filament/number of filament present.

[2] = tested on: porcine coronary model; test: Directly (ethanol dip) coated stents in a porcine coronary model; assay type: in vivo; settings: direct coating
From the text: To get rid of the polymer, which remains always a concern when coating a drug on an endoluminal prosthesis, since several polymers have shown to be non biocompatible and to induce an inflammatory response leading to SMC proliferation and restenosis, the present inventor tried to coat melatonin directly to the surface of the endoluminal prosthesis. As endoluminal prosthesis use was made of a commercially available 316L stainless steel coronary stent (V-Flex Plus, 16 mm/3.0 mm, William Cook Europe) and the stent was dipped in a 20 mg/ml ethanol solution for 30 seconds. After removal the stent was air-dried using a warm laminar flow to evaporate the ethanol. Using this method a total melatonin load on the stent of 20 μg could be achieved. […] This could be explained by the 1) the potent free radical scavenging effect of melatonin, 2) the potent anti-inflammatory effect of melatonin, 3) maybe a direct effect on SMC proliferation, 4) the non toxic effect of melatonin on other mediators of the healing response.
In a next step the total load of melatonin was increased by using more concentrated melatonin/ethanol solutions. By doing so a maximum total load of 300 μg/ stent could be achieved.

[3] = tested on: porcine coronary model; test: Oil/solvent emulsion coated stents (500 μg) in a porcine coronary model, up to 3 months; assay type: in vivo; settings: oil/solvent emulsion coating, 500 μg melatonin per stent
Procedure: (§1) In order to maintain significant melatonin concentrations for a longer period of time to obtain a durable anti-restenosis effect the present inventor has developed new methods to achieve a slower melatonin release. The drug was dissolved in a biocompatible emulsion of oil and a solvent wherein the drug is highly soluble. The stent was dipped in this emulsion several times and in between the different dipping steps air-dried using a warm laminar flow to evaporate the solvent and harden the drug/oil coating.
Using the same coating method, no effect of probucol was found.

[4] = tested on: in-stent neointimal hyperplasia; test: Further studies with different total loading doses per stent, in-stent neointimal hyperplasia; assay type: in vivo
[5] = In-vitro release of drug from coated stent; assay type: physicochemical
Procedure: (§2) A disavantage of the direct coating system is the fast release of the drug from the stent.
as §1

[6] = In-vivo melatonin coronary vascular concentration after direct-coated stent; settings: direct coating
From the text: as §2

Compound | effect on neointimal hyperplasia compared to bare and oil-only stents (in words) ([1]; 4 weeks) | AS: Area stenosis (= 100 * (1 − LA/IEL)) [1] [%] | Inflammation (peri-strut inflammation score 1-3, mean) [1] | Injury (arterial injury score, Schwartz grade 0-3, mean) [1] | NIH: Neointimal hyperplasia (= IEL − LA) [1] [mm2] | LA: Lumen area [1] [mm2] | Inflammation (peri-strut inflammation score 1-3, mean) ([1]; listed as Probutol) | effect on arterial injury and inflammatory response (in words) ([1]; 4 weeks) | effect on inflammatory response and neointimal hyperplasia ([2]; similar experiments as 20 μg melatonin stents) | effect on peri-strut inflammation and neointimal hyperplasia [3] | effect on in-stent neointimal hyperplasia ([4]; Probucol total loading doses 10-2000 μg per stent) | lumen area compared with the other groups (in words) ([1]; 4 weeks) | biocompatibility / inflammation surrounding the struts on histological examination ([2]; 20 μg per stent, follow-up after 5 days) | effect on inflammatory response and neointimal hyperplasia ([2]; high dose, maximum total load 300 μg/stent) | decrease in neointimal hyperplasia compared to a bare stent ([2]; total load 20 μg per stent, after 4 weeks) [%] | In-vitro release ([5]; direct coating, within 24 hours) [%] | melatonin release period ([5]; oil/solvent emulsion coating, total load 500 μg per stent) | duration of sufficient melatonin coronary vascular concentration [6] | effect on neointimal hyperplasia ([4]; dose depending response, already observed for a dose of 0.5 μg/mm^2 stent area)
CC(C)(Sc1cc(C(C)(C)C)c(O)c(C(C)(C)C)c1)Sc1cc(C(C)(C)C)c(O)c(C(C)(C)C)c1 [Probucol] | no significant effect | 24 ± 14 | 1.03 ± 0.08 | 0.28 ± 0.20 | 1.43 ± 0.77 | 4.46 ± 1.06 | 1.03±0.08 | could decrease arterial injury and inflammatory response | did not result in a significant effect | no effect | no significant effect | – | – | – | – | – | – | – | –
COc1ccc2[nH]cc(CCNC(C)=O)c2c1 [Melatonin, N-acetyl-5-methoxytryptamine] | significant decrease | 16±7 | 1.00±0.00 | 0.08 ± 0.09 | 0.89±0.28 | 5.10 ± 1.40 | – | the injury score was dramatically decreased; also recorded: minimal inflammatory response | – | Sustained inhibition of peri-strut inflammation and neointimal hyperplasia | – | larger than the other groups | without inducing any inflammation | efficient blocking of inflammatory response and neointimal hyperplasia | 26 | 90 | weeks instead of days | up to 15 days | significant inhibition
